The values below come from BindingDB's records for doi:10.1016/j.bmcl.2010.12.114 (Ligand Pharmaceuticals, 2011).

The assay in a line: Inhibition of human CXCR3 by chemotaxis assay.

Broadly, the IC50 is the concentration at which inhibition is half-maximal. A higher IC50 goes with weaker potency. With `C[C@H]1CN(c2ncc(C(=O)NCc3ccc(F)c(F)c3)cc2Cl)CCN1C1CCN(Cc2ccc(Cl)cc2)CC1` [(S)-5-chloro-6-(4-(1-(4-chlorobenzyl)piperidin-4-yl)-3-methylpiperazin-1-yl)-N-(3,4-difluorobenzyl)nicotinamide], the IC50 was 23 nM.
